Assay results from US20070123466A1, “Method of treating recurrent miscarriages” (New York Society for the Ruptured and Crippled Maintaining …, priority 2003, published 2007).

Experiments:
Assay type in all cases: in vivo, mouse
DBA/2-mated CBA/J mice = assay: Fetal resorption in DBA/2-mated CBA/J mice, murine model of spontaneous recurrent miscarriage
Experimental: Female mice were allowed to mate with previously isolated male mice. The groups in the present experiment comprised 7-20 animals, one group of DBA/2-mated CBA/J mice and two controls (CBA×Balb/c and Balb/c×Balb/c). After mating, the females were checked daily until the presence of a vaginal plug was confirmed (this time point was then defined as day 0.5 of pregnancy). The mice were sacrificed 15 days post-conception. Uteri were dissected and the frequency of fetal resorption was determined as the number of resorptions divided by total number of formed fetuses and resorptions. Resorption sites, resulting from the loss of a previously viable fetus, are easily identifiable by visual inspection.
Mice were mated as described above, and sacrificed on day 8.5 post-conception. Sections of decidual tissue from CBA/J×Balb/c were incubated with an antibody to mouse C3, and followed by rabbit anti-goat IgG conjugated with HRP (horseradish peroxidase) and staining.
This experiment was carried out to investigate if blockade of complement activation would prevent fetal loss in the murine model of miscarriage. In these experiments, DBA/2-mated CBA/J pregnant mice were treated with three different targeted inhibitors of complement activation.
Crry-Ig. Complement receptor 1-related gene/protein y (Crry) inhibits C3 convertase activity. The Crry used in the experiments was Crry-Ig, which is a recombinant soluble form of Crry fused to the hinge, CH2, and CH3 domains of mouse IgG1, prepared as described in Quigg et al., J Immunol 1998;160:4553-4560. Crry-Ig blocks activation of C3 by both the classical and alternative pathways, thereby preventing all complement effector activities. Pregnant DBA/2-mated CBA/J mice were treated with 3 mg Crry-Ig, administered i.p. on days 8, 10 and 12.
Monoclonal anti-C5 mAb. Also tested was an antibody against C5, which prevents the cleavage of C5. […]
To inhibit factor B, mice were injected on days 7 through 13 of pregnancy with mAb1379 (2 mg intraperitoneally) or with murine IgG as a control. Fetal resorption frequency was calculated on day 15 of pregnancy.

[1] = tested on: pregnant mice treated with aPL-IgG; assay: aPL antibody-induced pregnancy loss, murine pregnancy model of APS
[2] = tested on: C3 deposition in decidual tissue; assay: Immunohistochemistry of deciduas (C3, human IgG, granulocytes); details: aPL-IgG treated mice that also received the agent
Description: (§1) Immunohistochemistry. […] Sections were counterstained with hematoxylin.
as §1

[3] = mice given aPL-IgG 10 mg i.p. days 8 and 12 plus the agent

AcPhe(L-ornithine-Pro-D-cyclohexylalanine-Trp-Arg) [C5aR-AP]
fetal resorption rate (DBA/2-mated CBA/J mice; DBA/2-mated CBA/J mice, 100 μg i.p. on day 8, sacrificed day 15): about 7%
fetal loss / pregnancy loss (DBA/2-mated CBA/J mice; DBA/2-mated CBA/J mice, inhibitor i.p. during pregnancy, fetal resorption day 15): prevented fetal loss
fetuses and resorptions in uterus (DBA/2-mated CBA/J mice; uterus from treated DBA/2-mated CBA/J mouse, day 15): 6 larger fetuses with decidua and no resorptions
aPL antibody-induced growth restriction [1, 3]: prevented
aPL antibody-induced pregnancy loss (fetal resorption) [1, 3]: prevented
frequency of fetal resorption in the absence of aPL antibodies ([1]; mice that received NH-IgG / no aPL antibodies): had no effect
C3 deposition in decidual tissue [2]: minimal C3 deposition
neutrophil infiltration / inflammation in deciduas [2]: no evidence of inflammation
